This is an account of results in US20150322094A1, “USE OF SUBSTITUTED 2,3-DIHYDRO-1-BENZOFURAN-4-CARBOXYLIC ACIDS OR SALTS THEREOF AS ACTIVE SUBSTANCES AGAINST ABIOTIC PLANT STRESS” (Bayer CropScience AG, priority 2012, published 2015).

Bounds are passed on as bounds.

What all share (assay type): in vivo
Test [1] has as its system TRZAS (Triticum aestivum). Briefly: Drought stress, spray application, greenhouse pot test. To be noted: average of one to three independent trials. The method, then: (§1) Seeds of monocotyledonous and dicotyledonous crop plants were laid out in sandy loam in wood-fiber pots, covered with soil or sand and cultivated in a greenhouse under good growth conditions. The test plants were treated at the early leaf stage (BBCH10-BBCH13). To assure uniform water supply before commencement of stress, the potted plants were supplied with water by dam irrigation prior to substance application. The inventive compounds, formulated in the form of wettable powders (WP), were sprayed onto the green parts of the plants as an aqueous suspension at an equivalent water application rate of 600 l/ha with addition of 0.2% wetting agent (e.g. agrotin). Substance application was followed immediately by stress treatment of the plants. For this purpose, the pots were transferred into plastic inserts in order to prevent them from subsequently drying out too quickly.
(§2) Drought stress was induced by gradual drying out under the following conditions:
(§3) “Day”: 14 hours with illumination at 26° C.
(§4) “Night”: 10 hours without illumination at 18° C.
(§5) The duration of the respective stress phases was guided mainly by the state of the untreated, stressed control plants and thus varied from crop to crop. It was ended (by re-irrigating and transfer to a greenhouse with good growth conditions) as soon as irreversible damage was observed on the untreated, stressed control plants. In the case of dicotyledonous crops, for example oilseed rape and soya, the duration of the drought stress phase varied between 3 and 6 days, in the case of monocotyledonous crops, for example wheat, barley or corn, between 6 and 11 days.
(§6) The end of the stress phase was followed by an approx. 5-7-day recovery phase, during which the plants were once again kept under good growth conditions in a greenhouse.
(§7) In order to rule out any influence of the effects observed by any fungicidal or insecticidal action of the test compounds, it was additionally ensured that the tests proceeded without fungal infection or insect infestation.
(§8) After the recovery phase had ended, the intensities of damage were analysed in visual comparison to untreated, unstressed controls for the same age. The intensity of damage was first recorded as a percentage (100%=plants have died, 0%=like control plants). These values were then used to calculate the efficacy of the test compounds (=percentage reduction in the intensity of damage as a result of substance application) by the following formula: […]
(§9) DVus: damage value of the untreated, stressed control
(§10) DVts: damage value of the plants treated with test compound
(§11) In each trial, 3 pots per crop and dosage were treated and evaluated; the resulting efficacies are thus averages. The values in tables A-1, A-2 and A-3 below are again averages from one to three independent trials.

The test system of the next test is BRSNS (Brassica napus). The description is as above. To be noted: evaluated after recovery phase. The procedure:
as §1, §2, §3, §4, §5, §6, §7, §8, §9, §10, §11

In test [2] the test system is ZEAMX (Zea mays). The description is as above. As to conditions: average of one to three independent trials. The method, then: as §1, §2, §3, §4, §5, §6, §7, §8, §9, §10, §11
Test [3] has as its system ZEAMX (Zea mays). Briefly: Cold stress, spray application, climate-controlled chamber test. To be noted: averages from one to three independent trials.
Text: (§12) Seeds of monocotyledonous and dicotyledonous crop plants were laid out in sandy loam in plastic pots, covered with soil or sand and cultivated in a greenhouse under good growth conditions until the early leaf stage (BBCH12). The trial plants were then likewise treated at the early leaf stage. To assure uniform water supply before commencement of stress, the potted plants were supplied with water by dam irrigation prior to substance application. The inventive compounds, formulated in the form of wettable powders (WP), were sprayed onto the green parts of the plants as an aqueous suspension at an equivalent water application rate of 300 I/ha with addition of 0.2% wetting agent (e.g. agrotin). Substance application was followed immediately by stress treatment of the plants. For this purpose, the plants in question were transferred into a climate-controlled chamber and, after a wait period of 24 h, subjected to a cold stress profile with the following conditions: • 1) “Morning” warm-up phase from 2 to 16° C. for 5 hours • 2) “Day” at 16° C. for 6 hours • 3) “Evening” cool-down phase from 16 to 2° C. for 7 hours • 4) “Night” at 2° C. for 6 hours
(§13) Over the entire trial period, both the stressed trial plants and the control plants were supplied with the same amount of water which enabled good growth under control conditions. For this purpose, the unstressed control plants which served as a comparison were kept in a greenhouse under good growth conditions and observing the following conditions: • 1) “Day”: 14 hours with illumination at 22° C. • 2) “Night”: 10 hours without illumination at 12° C.
(§14) After a period of two weeks of the cold stress profile, the stress phase was ended, and there followed a recovery phase of about three weeks, during which the plants were once again kept in a greenhouse under good growth conditions. In order to rule out any influence of the effects observed by any fungicidal or insecticidal action of the test compounds, it was additionally ensured that the tests proceeded without fungal infection or insect infestation.
as §8, §9, §10
(§15) In each trial, 8 pots per crop and dosage were treated and evaluated; the resulting efficacies are therefore averages. The values in tables B-1 and B-2 below are again averages from one to three independent trials.

The subject of test [4] is TRZAS (Triticum aestivum). The description is as above. As to conditions: averages from one to three independent trials.
Text: as §12, §13, §14, §8, §9, §10, §15

Take `COC(=O)c1c(O)ccc2c1CC(c1cccc(OC)c1)O2` (centres unmarked) [I.1-3]: the “EF (TRZAS): efficacy, percentage reduction in the intensity of damage” value in test [1] (dosage 250 g/ha) is listed as more than 5%.
As for `COC(=O)c1c(O)ccc2c1CC(c1ccc(OC)c(OC)c1)O2` (centres unmarked) [I.1-12], in the test with BRSNS (Brassica napus) (dosage 25 g/ha), the “EF (BRSNS): efficacy = percentage reduction in the intensity of damage” value is more than 5%. The “EF (TRZAS): efficacy, percentage reduction in the intensity of damage” value in test [1] (dosage 25 g/ha) is more than 5%.
`COC(=O)c1c(O)ccc2c1CC(C)(c1ccc(C)cc1)O2` (centres unmarked) [I.1-44]: the “EF (ZEAMX): efficacy, percentage reduction in the intensity of damage” value in the test with ZEAMX (Zea mays) [2] (dosage 25 g/ha) is more than 5%. For the same molecule, the “EF (BRSNS): efficacy = percentage reduction in the intensity of damage” value in the test with BRSNS (Brassica napus) (dosage 2.5 g/ha) was more than 5%.
On to `COC(=O)c1c(OC(C)=O)ccc2c1CC(c1ccc(OC)cc1)O2` (centres unmarked) [I.5-4], for which the “EF (BRSNS): efficacy = percentage reduction in the intensity of damage” value in the test with BRSNS (Brassica napus) (dosage 2.5 g/ha) is reported as more than 5%.
On to `COC(=O)c1c(OC(=O)C2CCC2)ccc2c1CC(c1ccc(OC)cc1)O2` (centres unmarked) [I.6-4, Methyl 5-[(cyclobutylcarbonyl)oxy]-2-(4-methoxyphenyl)-2,3-dihydro-1-benzofuran-4-carboxylate], for which the “EF (BRSNS): efficacy = percentage reduction in the intensity of damage” value in the test on BRSNS (Brassica napus) (dosage 25 g/ha) is reported as more than 5%. Besides, the “EF (TRZAS): efficacy, percentage reduction in the intensity of damage” value in test [1] (dosage 25 g/ha) is more than 5%.
For the molecule `COC(=O)c1c(O)ccc2c1C(C)C(c1ccc(OC)cc1)O2` (centres unmarked) [I.1-20], in the test on BRSNS (Brassica napus) (dosage 2.5 g/ha), the “EF (BRSNS): efficacy = percentage reduction in the intensity of damage” value is given as more than 5%.
`COC(=O)c1c(O)ccc2c1CC(C)(c1ccc3ccccc3c1)O2` (centres unmarked) [I.1-49]: the “EF (BRSNS): efficacy = percentage reduction in the intensity of damage” value in the test on BRSNS (Brassica napus) (dosage 2.5 g/ha) was more than 5%.
Turning to `COC(=O)c1c(O)ccc2c1CC(c1ccc(Oc3ccccc3)cc1)O2` (centres unmarked) [I.1-41], the “EF (ZEAMX): efficacy, percentage reduction in the intensity of damage” value in the test on ZEAMX (Zea mays) [2] (dosage 25 g/ha) and with ZEAMX (Zea mays) [3] (dosage 6.25 g/ha) was more than 5% in each case. Also, the “EF (BRSNS): efficacy = percentage reduction in the intensity of damage” value in the test with BRSNS (Brassica napus) (dosage 2.5 g/ha) was more than 5%. For the same molecule, in test [4] (dosage 6.25 g/ha), the “EF (TRZAS): efficacy, percentage reduction in the intensity of damage” value is more than 5%.
For the molecule `COC(=O)c1c(O)ccc2c1CC(C)(c1ccccc1)O2` (centres unmarked) [I.1-16], the “EF (BRSNS): efficacy = percentage reduction in the intensity of damage” value in the test on BRSNS (Brassica napus) (dosage 2.5 g/ha) is given as more than 5%.
`CCOC(=O)c1c(O)ccc2c1CC(c1ccc(OC)cc1)O2` (centres unmarked) [I.4-4]: the “EF (ZEAMX): efficacy, percentage reduction in the intensity of damage” value in the test with ZEAMX (Zea mays) [2] (dosage 25 g/ha) and with ZEAMX (Zea mays) [3] (dosage 6.25 g/ha) was more than 5% each time. Besides, the “EF (BRSNS): efficacy = percentage reduction in the intensity of damage” value with BRSNS (Brassica napus) (dosage 2.5 g/ha) is given as more than 5%. Further, the “EF (TRZAS): efficacy, percentage reduction in the intensity of damage” value in test [1] (dosage 25 g/ha) and in test [4] (dosage 25 g/ha) was more than 5% in each case.
Regarding `COC(=O)c1c(O)ccc2c1CC(c1ccc3ccccc3c1)O2` (centres unmarked) [I.1-48], in the test on ZEAMX (Zea mays) [2] (dosage 250 g/ha), the “EF (ZEAMX): efficacy, percentage reduction in the intensity of damage” value was more than 5%. Moreover, the “EF (BRSNS): efficacy = percentage reduction in the intensity of damage” value in the test on BRSNS (Brassica napus) (dosage 2.5 g/ha) is reported as more than 5%.
`COC(=O)c1c(OS(=O)(=O)C(F)(F)F)ccc2c1CC(c1ccc(OC)cc1)O2` (centres unmarked) [I.16-4]: the “EF (ZEAMX): efficacy, percentage reduction in the intensity of damage” value in the test on ZEAMX (Zea mays) [2] (dosage 25 g/ha) is on record as more than 5%.
For `COC(=O)c1c(O)ccc2c1CC(c1ccc(OCc3ccccc3)c(OC)c1)O2` (centres unmarked) [I.1-35], the “EF (ZEAMX): efficacy, percentage reduction in the intensity of damage” value in the test with ZEAMX (Zea mays) [2] (dosage 25 g/ha) and in the test on ZEAMX (Zea mays) [3] (dosage 25 g/ha) was more than 5% each time. Besides, the “EF (BRSNS): efficacy = percentage reduction in the intensity of damage” value in the test on BRSNS (Brassica napus) (dosage 25 g/ha) is listed as more than 5%. Moreover, the “EF (TRZAS): efficacy, percentage reduction in the intensity of damage” value in test [1] (dosage 25 g/ha) and in test [4] (dosage 25 g/ha) was more than 5% each time.
On to `COC(=O)c1c(O)ccc2c1CC(c1ccc(OC(C)=O)cc1)O2` (centres unmarked) [I.1-40], for which the “EF (ZEAMX): efficacy, percentage reduction in the intensity of damage” value with ZEAMX (Zea mays) [2] (dosage 25 g/ha) and in the test with ZEAMX (Zea mays) [3] (dosage 25 g/ha) was more than 5% in each case. For the same molecule, the “EF (TRZAS): efficacy, percentage reduction in the intensity of damage” value in test [1] (dosage 25 g/ha) and in test [4] (dosage 25 g/ha) was more than 5% in each case.
As for `COC(=O)c1c(O)ccc2c1C(C)C(c1ccc(OC)c(OC)c1)O2` (centres unmarked) [I.1-21, Methyl 2-(3,4-dimethoxyphenyl)-5-hydroxy-3-methyl-2,3-dihydro-1-benzofuran-4-carboxylate], in the test with BRSNS (Brassica napus) (dosage 25 g/ha), the “EF (BRSNS): efficacy = percentage reduction in the intensity of damage” value is reported as more than 5%.
For `COC(=O)c1c(O)ccc2c1CC(c1ccc(OC(C)(C)C)cc1)O2` (centres unmarked) [I.1-32], in the test on ZEAMX (Zea mays) [2] (dosage 25 g/ha), the “EF (ZEAMX): efficacy, percentage reduction in the intensity of damage” value is given as more than 5%. Further, the “EF (BRSNS): efficacy = percentage reduction in the intensity of damage” value in the test with BRSNS (Brassica napus) (dosage 25 g/ha) is listed as more than 5%. The “EF (TRZAS): efficacy, percentage reduction in the intensity of damage” value in test [1] (dosage 25 g/ha) was more than 5%.
For the molecule `COC(=O)c1c(O)ccc2c1CC(c1ccc(OC)cc1)O2` (centres unmarked) [I.1-4, Methyl 2-(4-methoxyphenyl)-5-hydroxy-2,3-dihydro-1-benzofuran-4-carboxylate], the “EF (ZEAMX): efficacy, percentage reduction in the intensity of damage” value with ZEAMX (Zea mays) [2] (dosage 100 g/ha) and with ZEAMX (Zea mays) [3] (dosage 25 g/ha) was more than 5% throughout. For the same molecule, the “EF (BRSNS): efficacy = percentage reduction in the intensity of damage” value in the test on BRSNS (Brassica napus) (dosage 100 g/ha) is reported as more than 5%.
Regarding `CCOC(=O)c1c(O)ccc2c1C(C)C(c1ccc(OC)c(OC)c1)O2` (centres unmarked) [I.4-21], the “EF (BRSNS): efficacy = percentage reduction in the intensity of damage” value in the test on BRSNS (Brassica napus) (dosage 2.5 g/ha) is given as more than 5%.
In the case of `COc1ccc(C2Cc3c(ccc(O)c3C(=O)O)O2)cc1` (centres unmarked) [I.2-4], the “EF (BRSNS): efficacy = percentage reduction in the intensity of damage” value with BRSNS (Brassica napus) (dosage 250 g/ha) is more than 5%.
